Assay results taken from US20260258420A1, “COMPOSITIONS AND METHODS FOR THE TREATMENT OF HUMAN PAPILLOMAVIRUS-DRIVEN CANCERS” (priority 2023, published 2026).

Key:
Assay type in all cases: cell-based
[1] = system: HN31 and MDA886LN cells expressing RB1 shRNA; assay: Apoptosis with TRIP13 overexpression, RB1-knockdown HPV-negative cells; conditions: 300 nmol/L
Method: FIG. 5A, two HPV-positive cell lines (CASKI and SIHA) were transfected with BUB1B or MAD2L1 siRNA and then treated for 24 hours with 300 nmol/L alisertib before lysis and immunoblotting with the indicated antibodies. FIG. 5B, TRIP13 was transiently overexpressed (Ox) in 2 HPV-positive cell lines that were treated for 24 hours with 300 nmol/L alisertib before lysis and immunoblotting for the indicated proteins. FIG. 5C, HPV-positive cell lines with TRIP13 overexpression were treated with 300 nmol/L alisertib for 32 hours and then stained for annexin V-PE/7AAD staining and analysis with flow cytometry to measure apoptosis. The bar graph represents the ratio of apoptosis (late plus early) among different groups. Values are the means±the standard deviations for 3 independent experiments. ** P≤0.01; *** P≤0.001; unpaired, 2-tailed Student t-test. FIG. 5D, HN31 (left panel) and MDA886LN (right panel) cells expressing RB1 or control shRNA were transfected with a plasmid for TRIP13. After 24 hours, cells were treated with 300 nmol/L alisertib and then lysed for immunoblotting. Cl, cleaved; Fl, full length; GAPDH, glyceraldehyde 3-phosphate dehydrogenase.
In normal cells, prolonged mitosis resulting from Mad2 overexpression can lead to G1 arrest or mitotic cell death, so it is unclear why Mad2 overexpression is tolerated in HPV-positive cancers. […]

[2] = system: 3 HPV-positive and 3 HPV-negative cell lines; assay: Immunoblot of cleaved PARP and cleaved caspase-3; conditions: 72 hours or 2 doubling times
Method: BrdU positive apoptotic cells were detected and quantified. The bar graph indicates the percentage of apoptotic cells with fragmented DNA in HPV-positive and HPV-negative cell lines. Values are the means±the standard deviations for 3 independent experiments. FIG. 2B and FIG. 2C show immunoblots of cleaved PARP (Cl. PARP) and cleaved caspase-3 (Cl. […] UM47, UMSCC47; GAPDH, glyceraldehyde 3-phosphate dehydrogenase. Western blot analysis was performed as described previously (Ferrarotto, et al., Clin Cancer Res 2016; 22(7):1674-86). In brief, cells were lysed with ice-cold lysis buffer, and the lysates were centrifuged at 20,000×g for 10 minutes at 4° C. Cell lysates containing equal amounts of protein were resolved using sodium dodecyl sulfate-polyacrylamide gel electrophoresis, transferred to nitrocellulose membranes, and incubated with different primary antibodies. Protein expression was detected using a horseradish peroxidase-conjugated secondary antibody (Bio-Rad, Hercules, CA) and electrochemiluminescence reagent (Amersham Biosciences, Pittsburgh, PA).

[3] = system: HPV-positive cancer cell lines (UMSCC47, CaSki, and MS751); assay: BrdU-TUNEL apoptosis assay, HPV-positive cell lines; conditions: 50 nmol/L barasertib or 200 nmol/L alisertib, 72 hours or 2 doubling times
Method: BrdU positive apoptotic cells were detected and quantified. The bar graph indicates the percentage of apoptotic cells with fragmented DNA in HPV-positive and HPV-negative cell lines. Values are the means±the standard deviations for 3 independent experiments. FIG. 2B and FIG. 2C show immunoblots of cleaved PARP (Cl. PARP) and cleaved caspase-3 (Cl. Caspase-3) levels in 3-HPV positive and 3 HPV-negative cell lines after barasertib or alisertib treatment for 2 doubling times (FIG. 2B) or 72 hours (FIG. 2C). […] UM47, UMSCC47; GAPDH, glyceraldehyde 3-phosphate dehydrogenase.
To measure apoptosis, TUNEL staining was performed with an APO-BRDU Kit (BD Biosciences, San Jose, CA) and annexin V/propidium iodide staining with an FITC Annexin V Apoptosis Detection Kit PE (eBioscience, San Diego, CA) as described previously (Kalu, et al., Cancer Lett 2018; 431:64-72). […] Data were acquired with a 3-laser, 10-color Gallios flow cytometer (Beckman Coulter, Brea, CA) and analyzed using Kaluza software, RRID:SCR_016182 (Beckman Coulter, Brea, CA). […] Briefly, after drug treatment, cells were incubated with Senescence Green Probe, a fluorescence-based reagent that contains 2 galactoside moieties that make it specific to […]. The enzyme-cleaved product is retained within the cell, and it emits a fluorogenic signal that was measured at 490/514 nm using a flow cytometer. […]

COc1cc(Nc2ncc3c(n2)-c2ccc(Cl)cc2C(c2c(F)cccc2OC)=NC3)ccc1C(=O)O [ALISERTIB, alisertib]
apoptosis with TRIP13 overexpression [1]: reduced apoptosis
caspase-3 activation and PARP cleavage [2]: selective caspase-3 activation and PARP cleavage in HPV-positive cancer cell lines
TUNEL-positive apoptotic nuclei [3]: significantly increased
